Assay results published in ChEMBL document CHEMBL3739316, “Novel orally active inhibitors of β-1,3-glucan synthesis derived from enfumafungin” (Bioorg Med Chem Lett, 2015).
≈ marks a conversion by molar mass, not a printed value.

Legend:
Beta-1,3-glucan synthase = target: T1, Beta-1,3-glucan synthase (Candida albicans, UniProt O13383); assay: Displacement of UDP-[3H]glucose from beta-1,3-glucan synthase in Candida albicans MY1055 microsomal membranes incubated for 2 hrs
T1 sequence (O13383 whole entry): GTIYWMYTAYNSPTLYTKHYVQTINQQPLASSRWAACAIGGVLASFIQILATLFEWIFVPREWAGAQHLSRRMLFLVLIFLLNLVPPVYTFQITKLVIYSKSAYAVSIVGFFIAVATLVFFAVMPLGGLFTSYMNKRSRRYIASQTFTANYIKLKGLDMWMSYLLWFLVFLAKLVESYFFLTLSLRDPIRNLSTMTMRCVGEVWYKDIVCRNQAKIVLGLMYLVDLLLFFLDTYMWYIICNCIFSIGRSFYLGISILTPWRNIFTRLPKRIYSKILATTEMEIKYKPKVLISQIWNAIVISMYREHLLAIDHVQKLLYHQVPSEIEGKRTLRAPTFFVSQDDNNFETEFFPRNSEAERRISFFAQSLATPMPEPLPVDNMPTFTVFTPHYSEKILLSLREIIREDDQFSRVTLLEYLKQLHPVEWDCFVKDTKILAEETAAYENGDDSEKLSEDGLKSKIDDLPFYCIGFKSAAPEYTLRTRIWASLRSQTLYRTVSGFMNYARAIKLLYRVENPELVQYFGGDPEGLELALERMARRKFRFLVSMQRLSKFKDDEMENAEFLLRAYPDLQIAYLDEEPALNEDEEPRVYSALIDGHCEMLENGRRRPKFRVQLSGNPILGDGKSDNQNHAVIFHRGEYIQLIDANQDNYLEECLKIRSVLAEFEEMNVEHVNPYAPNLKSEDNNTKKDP

Aspergillus fumigatus = assay: Antifungal activity against Aspergillus fumigatus MF5668 after 24 hrs by liquid microdilution assay; type: functional; conditions: MF5668, 24 h, read-out: MEC
Candida albicans [1] = assay: Antifungal activity against Candida albicans MY1055 in DBA/2 mouse candidiasis model assessed as change in CFU per gram of kidney at 25 mg/kg, po bid after 4 days by Target Organ Kidney Assay relative to sham treated control; type: functional
Candida albicans [2] = assay: Antifungal activity against Candida albicans MY1055 after 24 hrs by liquid microdilution assay in presence of human serum; type: functional; conditions: MY1055, 24 h
Candida albicans [3] = assay: Antifungal activity against Candida albicans MY1055 after 24 hrs by liquid microdilution assay; type: functional; conditions: MY1055, 24 h
Candida albicans [4] = assay: Antifungal activity against Candida albicans MY1055 in DBA/2 mouse candidiasis model assessed as change in CFU per gram of kidney at 6.25 mg/kg, po bid after 4 days by Target Organ Kidney Assay relative to sham treated control; type: functional
[5] = Oral bioavailability in mouse; type: ADME, organism-based; conditions: in vivo
Candida albicans [6] = assay: Antifungal activity against Candida albicans MY1055 in DBA/2 mouse candidiasis model assessed as change in CFU per gram of kidney at 12.5 mg/kg, po bid after 4 days by Target Organ Kidney Assay relative to sham treated control; type: functional
Mus musculus [7] = assay: Dose normalized AUC in orally dosed mouse; type: ADME, organism-based; conditions: in vivo, po
Candida albicans [8] = assay: Antifungal activity against Candida albicans MY1055 in DBA/2 mouse candidiasis model assessed as change in CFU per gram of kidney at 6.25 mg/kg, po bid after 7 days by Target Organ Kidney Assay relative to sham treated control; type: functional
Candida albicans [9] = assay: Antifungal activity against Candida albicans MY1055 in DBA/2N mouse candidiasis model assessed as reduction of fungal burden after 7 days; type: functional; conditions: MY1055, 168 h
Mus musculus [10] = assay: AUC (0 to 24 hrs) in DBA/2J mouse assessed as metabolite 13c at 10 mg/kg, po; type: ADME, organism-based; parameters: dose 10 mg/kg, time < 24 hr, route oral; conditions: in vivo
Candida albicans [11] = assay: Antifungal activity against Candida albicans MY1055 in DBA/2N mouse candidiasis model assessed as mouse survival at 12.5 mg/kg, ip bid after 7 days by Target Organ Kidney Assay relative to sham treated control; type: functional; conditions: 168 h
Candida albicans [12] = assay: Antifungal activity against Candida albicans MY1055 in DBA/2N mouse candidiasis model assessed as mouse survival at 6.25 mg/kg, po bid after 4 days by Target Organ Kidney Assay relative to sham treated control; type: functional; conditions: 96 h
[13] = AUC (0 to 24 hrs) in DBA/2J mouse at 10 mg/kg, po; type: ADME, organism-based; parameters: dose 10 mg/kg, time < 24 hr, route oral; conditions: in vivo
Candida albicans [14] = assay: Antifungal activity against Candida albicans MY1055 in DBA/2 mouse candidiasis model assessed as change in CFU per gram of kidney at 12.5 mg/kg, po bid after 7 days by Target Organ Kidney Assay relative to sham treated control; type: functional
Candida albicans [15] = assay: Antifungal activity against Candida albicans MY1055 in DBA/2 mouse candidiasis model assessed as change in CFU per gram of kidney at 25 mg/kg, po bid after 7 days by Target Organ Kidney Assay relative to sham treated control; type: functional
Mus musculus [16] = assay: AUC (0 to 24 hrs) in DBA/2J mouse assessed as total metabolites at 10 mg/kg, po; type: ADME, organism-based; conditions: in vivo
Candida albicans [17] = assay: Antifungal activity against Candida albicans MY1055 in DBA/2 mouse candidiasis model assessed as change in CFU per gram of kidney at 12.5 mg/kg, ip bid after 7 days by Target Organ Kidney Assay relative to sham treated control; type: functional
Candida albicans [18] = assay: Antifungal activity against Candida albicans MY1055 in DBA/2N mouse candidiasis model assessed as mouse survival at 12.5 mg/kg, po bid after 7 days by Target Organ Kidney Assay relative to sham treated control; type: functional; conditions: 168 h
Candida albicans [19] = assay: Antifungal activity against Candida albicans MY1055 in DBA/2N mouse candidiasis model assessed as mouse survival at 25 mg/kg, po bid after 7 days by Target Organ Kidney Assay relative to sham treated control; type: functional; conditions: 168 h
Mus musculus [20] = assay: Drug level in DBA/2J mouse treated with 13f at 10 mg/kg, po; type: ADME, organism-based; conditions: in vivo

Compound	IC50 (Beta-1,3-glucan synthase) [nM]	MIC (Candida albicans [2]) [µg/mL]	MIC (Candida albicans [3]) [µg/mL]	bioavailability [5] [%]	AUC/dose (Mus musculus [7]) [µM·kg·h/mg]	minimal effective concentration (Aspergillus fumigatus) [µg/mL]	Activity (Candida albicans [1]) [deltalog10CFU]	Activity (Candida albicans [4]) [deltalog10CFU]	Activity (Candida albicans [6]) [deltalog10CFU]	also measured
CCN[C@@](C)(CO[C@H]1[C@H](n2nnc(N)n2)C[C@@]23COCC1(C)[C@@H]2CC[C@H]1C3=CC[C@@]2(C)[C@H](C(=O)O)[C@@](C)([C@H](C)C(C)C)CC[C@]12C)C(C)C	7.32	8	0.06 (≈ 0.0878 µM)	11	0.44	< 0.03	-2.8	-0.7	-2.6	Activity (Candida albicans [8]): 0.72 deltalog10CFU; ED99 (Candida albicans [9]): 13 mg/kg; AUC (Mus musculus [10]): 0.29 µM·h; survival at 12.5 mg/kg (Candida albicans [11]): 100%; survival at 6.25 mg/kg (Candida albicans [12]): 20%; AUC(0-t) at 24 h [13]: 4.22 µM·h; Activity (Candida albicans [14]): -2.54 deltalog10CFU; Activity (Candida albicans [15]): -2.8 deltalog10CFU; Drug uptake (Mus musculus [16]): 6.4%; Activity (Candida albicans [17]): -3.26 deltalog10CFU; survival at 12.5 mg/kg (Candida albicans [18]): 60%; survival at 25 mg/kg (Candida albicans [19]): 100%
CC(C)[C@@H](C)[C@@]1(C)CC[C@]2(C)[C@H]3CC[C@H]4C5(C)COC[C@@]4(C[C@@H](n4ncc6ccccc64)[C@@H]5O[C@@H]4O[C@H](CO)[C@@H](O)[C@H](O)[C@H]4O)C3=CC[C@@]2(C)[C@@H]1C(=O)O	> 1330	> 32	32 (≈ 42.6 µM)	–	–	8	–	–	–	–
CCCN[C@@](C)(CO[C@H]1[C@H](n2nnc(N)n2)C[C@@]23COCC1(C)[C@@H]2CC[C@H]1C3=CC[C@@]2(C)[C@H](C(=O)O)[C@@](C)([C@H](C)C(C)C)CC[C@]12C)C(C)C	11.5	16	0.06 (≈ 0.0861 µM)	25	0.35	< 0.03	-3	-1.1	-2.4	Activity (Candida albicans [8]): -2.04 deltalog10CFU; ED99 (Candida albicans [9]): 10 mg/kg; AUC (Mus musculus [10]): 0.36 µM·h; survival at 12.5 mg/kg (Candida albicans [11]): 100%; survival at 6.25 mg/kg (Candida albicans [12]): 40%; AUC(0-t) at 24 h [13]: 3.13 µM·h; Activity (Candida albicans [14]): -1.53 deltalog10CFU; Activity (Candida albicans [15]): -2.9 deltalog10CFU; Drug uptake (Mus musculus [16]): 10.3%; Activity (Candida albicans [17]): -2.98 deltalog10CFU; survival at 12.5 mg/kg (Candida albicans [18]): 100%; survival at 25 mg/kg (Candida albicans [19]): 100%
CN[C@@](C)(CO[C@H]1[C@H](n2nnc(N)n2)C[C@@]23COCC1(C)[C@@H]2CC[C@H]1C3=CC[C@@]2(C)[C@H](C(=O)O)[C@@](C)([C@H](C)C(C)C)CC[C@]12C)C(C)C	2.99	4	< 0.03	9	0.12	< 0.03	-2.5	-1.5	-1.9	Activity (Candida albicans [8]): -0.61 deltalog10CFU; ED99 (Candida albicans [9]): 19 mg/kg; AUC (Mus musculus [10]): 0.005 µM·h; Drug metabolism (Mus musculus [20]): metabolite_detected; survival at 12.5 mg/kg (Candida albicans [11]): 100%; survival at 6.25 mg/kg (Candida albicans [12]): 20%; AUC(0-t) at 24 h [13]: 1.06 µM·h; Activity (Candida albicans [14]): 0.89 deltalog10CFU; Activity (Candida albicans [15]): -2.54 deltalog10CFU; Drug uptake (Mus musculus [16]): 0.5%; Activity (Candida albicans [17]): -3.89 deltalog10CFU; survival at 12.5 mg/kg (Candida albicans [18]): 20%; survival at 25 mg/kg (Candida albicans [19]): 100%
CC(=O)Nc1nnnn1[C@@H]1C[C@@]23COCC(C)([C@H]1OC[C@](C)(N)C(C)C)[C@@H]2CC[C@H]1C3=CC[C@@]2(C)[C@H](C(=O)O)[C@@](C)([C@H](C)C(C)C)CC[C@]12C	81.8	> 32	8 (≈ 11.5 µM)	–	–	< 0.03	–	–	–	–
CC(=O)O[C@@H]1C[C@@]23COCC(C)([C@H]1OCC(C)(C)N)[C@@H]2CC[C@H]1C3=CC[C@@]2(C)[C@H](C(=O)O)[C@@](C)([C@H](C)C(C)C)CC[C@]12C	74.8	32	1 (≈ 1.66 µM)	37	1.22	< 0.03	-1.4	–	–	–
CC(C)[C@@H](C)[C@@]1(C)CC[C@]2(C)[C@H]3CC[C@H]4C5(C)COC[C@@]4(C[C@@H](n4cc6ccccc6n4)[C@@H]5O[C@@H]4O[C@H](CO)[C@@H](O)[C@H](O)[C@H]4O)C3=CC[C@@]2(C)[C@@H]1C(=O)O	1200	> 32	32 (≈ 42.6 µM)	–	–	2	–	–	–	–

Second part, led by results:

IC50 (Beta-1,3-glucan synthase) [nM]	MIC (Candida albicans [2]) [µg/mL]	MIC (Candida albicans [3]) [µg/mL]	bioavailability [5] [%]	AUC/dose (Mus musculus [7]) [µM·kg·h/mg]	Compound	minimal effective concentration (Aspergillus fumigatus) [µg/mL]	Activity (Candida albicans [1]) [deltalog10CFU]	Activity (Candida albicans [4]) [deltalog10CFU]	Activity (Candida albicans [6]) [deltalog10CFU]	also measured
9.52	> 32	0.5 (≈ 0.794 µM)	39	1.38	CC(=O)O[C@@H]1C[C@@]23COCC(C)([C@H]1OC[C@](C)(N)C(C)C)[C@@H]2CC[C@H]1C3=CC[C@@]2(C)[C@H](C(=O)O)[C@@](C)([C@H](C)C(C)C)CC[C@]12C	0.06	-2.2	-0.6	-0.6	–
22.2	16	0.25 (≈ 0.397 µM)	31	0.73	CC(=O)O[C@@H]1C[C@@]23COCC(C)([C@H]1OC[C@@](C)(N)C(C)C)[C@@H]2CC[C@H]1C3=CC[C@@]2(C)[C@H](C(=O)O)[C@@](C)([C@H](C)C(C)C)CC[C@]12C	< 0.03	-1.9	-0.5	-0.1	–
14.1	32	16 (≈ 22.5 µM)	30	0.74	CCCCN[C@@](C)(CO[C@H]1[C@H](n2nnc(N)n2)C[C@@]23COCC1(C)[C@@H]2CC[C@H]1C3=CC[C@@]2(C)[C@H](C(=O)O)[C@@](C)([C@H](C)C(C)C)CC[C@]12C)C(C)C	0.125	-2.6	-0.1	-1.2	–
71.9	> 32	8 (≈ 12.2 µM)	–	–	Cc1nnnn1[C@@H]1C[C@@]23COCC(C)([C@H]1OC[C@](C)(N)C(C)C)[C@@H]2CC[C@H]1C3=CC[C@@]2(C)[C@H](C(=O)O)[C@@](C)([C@H](C)C(C)C)CC[C@]12C	4	–	–	–	–
3.05	2	< 0.03	14	0.14	CC(C)[C@@H](C)[C@@]1(C)CC[C@]2(C)[C@H]3CC[C@H]4C5(C)COC[C@@]4(C[C@@H](n4nnc(N)n4)[C@@H]5OC[C@](C)(N)C(C)C)C3=CC[C@@]2(C)[C@@H]1C(=O)O	< 0.03	-2.2	-0.1	-0.3	Drug metabolism (Mus musculus [20]): metabolite_detected
